# Measurements reported in ChEMBL document CHEMBL5230137, “4-(3H)-quinazolinones N-3 substituted with a five membered heterocycle: A promising scaffold towards bioactive molecules” (Eur J Med Chem, 2021).
# How the values were obtained:
# [1] = biological target: Phosphatidylinositol 4,5-bisphosphate 3-kinase catalytic subunit gamma isoform (Homo sapiens, UniProt P48736); assay: Inhibition of PI3Kgamma (unknown origin) incubated for 90 mins by [gamma-33P]-ATP based scintillation counting method
# [2] = Inhibition of PI3Kdelta in Rat1 cells reduction in phosphorylation of AKT at Ser473 residue incubated for 2 hrs by alpha screen assay; format: cell-based; conditions: Rattus norvegicus, Rat1, 2 h
# [3] = biological target: T1, Phosphatidylinositol 4,5-bisphosphate 3-kinase catalytic subunit delta isoform (Homo sapiens, UniProt O00329); assay: Inhibition of PI3Kdelta (unknown origin) incubated for 90 mins by [gamma-33P]-ATP based scintillation counting method
# T1 sequence (O00329 whole entry): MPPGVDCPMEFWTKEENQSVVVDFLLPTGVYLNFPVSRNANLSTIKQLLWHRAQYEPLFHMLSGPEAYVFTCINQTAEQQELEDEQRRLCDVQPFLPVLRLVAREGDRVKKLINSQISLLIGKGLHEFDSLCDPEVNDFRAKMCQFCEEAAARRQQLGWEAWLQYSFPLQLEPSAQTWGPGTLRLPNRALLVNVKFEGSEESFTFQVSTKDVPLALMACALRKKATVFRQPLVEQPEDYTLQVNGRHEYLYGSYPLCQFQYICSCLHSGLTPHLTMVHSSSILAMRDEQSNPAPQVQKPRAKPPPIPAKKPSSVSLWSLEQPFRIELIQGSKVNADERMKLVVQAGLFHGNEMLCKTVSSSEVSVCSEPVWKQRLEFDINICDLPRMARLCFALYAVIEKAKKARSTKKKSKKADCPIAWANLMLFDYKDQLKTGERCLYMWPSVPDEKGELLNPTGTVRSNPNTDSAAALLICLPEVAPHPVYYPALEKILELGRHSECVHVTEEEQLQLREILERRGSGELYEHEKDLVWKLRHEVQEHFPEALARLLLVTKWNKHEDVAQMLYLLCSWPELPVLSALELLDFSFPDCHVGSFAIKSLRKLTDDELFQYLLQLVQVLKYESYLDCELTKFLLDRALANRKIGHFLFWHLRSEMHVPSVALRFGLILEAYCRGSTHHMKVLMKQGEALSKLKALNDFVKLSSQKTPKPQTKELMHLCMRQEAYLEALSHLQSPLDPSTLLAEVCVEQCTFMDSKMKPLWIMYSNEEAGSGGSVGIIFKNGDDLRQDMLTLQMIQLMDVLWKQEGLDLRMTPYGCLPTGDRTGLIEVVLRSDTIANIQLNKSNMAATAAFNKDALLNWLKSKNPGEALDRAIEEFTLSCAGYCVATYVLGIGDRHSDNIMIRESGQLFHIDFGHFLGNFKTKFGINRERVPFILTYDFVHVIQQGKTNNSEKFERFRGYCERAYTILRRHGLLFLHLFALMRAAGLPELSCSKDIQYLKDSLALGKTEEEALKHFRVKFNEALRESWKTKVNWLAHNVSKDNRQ
# [4] = biological target: Phosphatidylinositol 4,5-bisphosphate 3-kinase catalytic subunit alpha isoform (Homo sapiens, UniProt P42336); assay: Inhibition of PI3Kalpha (unknown origin) incubated for 90 mins by [gamma-33P]-ATP based scintillation counting method
# [5] = Acute toxicity in po dosed Swiss albino mouse measured after 24 hrs; format: organism-based; conditions: in vivo
# [6] = biological target: COX-1/COX-2 (Homo sapiens) (UniProt P35354+P23219); assay: Selectivity index, ratio of IC50 for human COX-1 to IC50 for human COX-2; format: protein assay
# Staphylococcus aureus [7] = assay: Bactericidal activity against Staphylococcus aureus; format: functional
# [8] = biological target: Epidermal growth factor receptor (Homo sapiens, UniProt P00533); assay: Inhibition of wild type human EGFR measured by ELISA analysis
# Ehrlich [9] = assay: Antitumor activity against mouse EAC cells implanted in mouse assessed as reduction in tumor cell count; format: functional; design: scale not given: the % may be the effect or the level left
# Ehrlich [10] = assay: Antitumor activity against mouse EAC cells implanted in mouse assessed as decrease in total ascitic volume; format: functional; design: scale not given: the % may be the effect or the level left
# Bacillus subtilis = assay: Antimicrobial activity against Bacillus subtilis by CLSI method; format: functional
# Staphylococcus aureus [11] = assay: Antimicrobial activity against Staphylococcus aureus by CLSI method; format: functional
# Escherichia coli [12] = assay: Antibacterial activity against Escherichia coli by CLSI method; format: functional
# Pseudomonas aeruginosa [13] = assay: Antimicrobial activity against Pseudomonas aeruginosa by CLSI method; format: functional
# Pseudomonas aeruginosa [14] = assay: Bactericidal activity against Pseudomonas aeruginosa; format: functional
# Escherichia coli [15] = assay: Bactericidal activity against Escherichia coli; format: functional
# Thermolysin [16] = biological target: T2, Thermolysin (Bacillus thermoproteolyticus, UniProt P00800); assay: Inhibition of Bacillus thermoproteolyticus Thermolysin
# T2 sequence (P00800 whole entry): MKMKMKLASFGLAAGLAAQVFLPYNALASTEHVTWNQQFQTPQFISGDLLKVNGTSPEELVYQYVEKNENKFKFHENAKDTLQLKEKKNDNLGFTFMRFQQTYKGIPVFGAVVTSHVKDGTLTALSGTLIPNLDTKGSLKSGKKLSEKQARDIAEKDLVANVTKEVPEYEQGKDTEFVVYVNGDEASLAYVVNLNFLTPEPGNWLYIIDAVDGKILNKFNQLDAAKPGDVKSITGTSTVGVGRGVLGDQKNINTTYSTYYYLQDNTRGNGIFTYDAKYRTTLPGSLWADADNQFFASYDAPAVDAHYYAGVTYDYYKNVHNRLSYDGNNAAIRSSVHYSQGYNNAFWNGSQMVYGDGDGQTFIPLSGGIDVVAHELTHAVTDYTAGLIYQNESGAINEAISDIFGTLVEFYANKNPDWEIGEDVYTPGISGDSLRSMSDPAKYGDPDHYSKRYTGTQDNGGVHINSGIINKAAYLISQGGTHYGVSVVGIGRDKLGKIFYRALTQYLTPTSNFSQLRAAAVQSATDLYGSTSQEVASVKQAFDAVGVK
# Thermolysin [17] = biological target: T2, Thermolysin; assay: Binding affinity to Bacillus thermoproteolyticus Thermolysin assessed as inhibition constant by Cheng-Prusoff equation analysis
# K562 = assay: Anticancer activity against human K562 cells assessed as reduction in cell viability; format: functional, cell-based
# Candida albicans = assay: Fungicidal activity against Candida albicans; format: functional
# Aspergillus niger = assay: Fungicidal activity against Aspergillus niger; format: functional
# Aspergillus clavatus = assay: Fungicidal activity against Aspergillus clavatus; format: functional
# Phosphatidylinositol 4,5-bisphosphate 3-kinase catalytic subunit alpha isoform, sequence (P42336 whole entry, canonical isoform): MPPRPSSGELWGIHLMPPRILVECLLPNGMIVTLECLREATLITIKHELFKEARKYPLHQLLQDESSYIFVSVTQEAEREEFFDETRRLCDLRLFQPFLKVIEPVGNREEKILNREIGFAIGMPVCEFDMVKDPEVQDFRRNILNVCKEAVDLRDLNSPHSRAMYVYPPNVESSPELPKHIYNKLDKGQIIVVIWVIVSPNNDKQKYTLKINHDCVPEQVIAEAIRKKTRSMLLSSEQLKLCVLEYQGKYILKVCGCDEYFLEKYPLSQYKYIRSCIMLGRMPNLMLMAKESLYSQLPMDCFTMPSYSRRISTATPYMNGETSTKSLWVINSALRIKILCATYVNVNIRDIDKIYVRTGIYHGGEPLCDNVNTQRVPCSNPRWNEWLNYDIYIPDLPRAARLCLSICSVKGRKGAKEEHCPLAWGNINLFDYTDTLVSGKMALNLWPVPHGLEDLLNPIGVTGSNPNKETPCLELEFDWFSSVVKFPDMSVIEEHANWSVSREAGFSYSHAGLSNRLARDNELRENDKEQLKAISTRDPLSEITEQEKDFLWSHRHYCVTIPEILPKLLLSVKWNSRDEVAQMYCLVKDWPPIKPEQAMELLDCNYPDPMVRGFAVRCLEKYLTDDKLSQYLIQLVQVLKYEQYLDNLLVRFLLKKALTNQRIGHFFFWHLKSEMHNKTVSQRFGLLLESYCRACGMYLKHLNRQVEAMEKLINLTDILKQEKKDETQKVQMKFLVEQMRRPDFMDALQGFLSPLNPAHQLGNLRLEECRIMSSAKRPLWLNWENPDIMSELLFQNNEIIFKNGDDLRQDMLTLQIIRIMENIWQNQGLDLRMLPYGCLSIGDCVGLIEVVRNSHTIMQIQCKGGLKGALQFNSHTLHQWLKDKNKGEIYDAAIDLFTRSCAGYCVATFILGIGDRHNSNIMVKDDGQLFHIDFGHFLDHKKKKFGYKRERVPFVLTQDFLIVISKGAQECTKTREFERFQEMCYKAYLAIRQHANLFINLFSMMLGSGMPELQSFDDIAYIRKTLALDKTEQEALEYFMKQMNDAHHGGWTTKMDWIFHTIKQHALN
# Epidermal growth factor receptor, sequence (P00533 whole entry): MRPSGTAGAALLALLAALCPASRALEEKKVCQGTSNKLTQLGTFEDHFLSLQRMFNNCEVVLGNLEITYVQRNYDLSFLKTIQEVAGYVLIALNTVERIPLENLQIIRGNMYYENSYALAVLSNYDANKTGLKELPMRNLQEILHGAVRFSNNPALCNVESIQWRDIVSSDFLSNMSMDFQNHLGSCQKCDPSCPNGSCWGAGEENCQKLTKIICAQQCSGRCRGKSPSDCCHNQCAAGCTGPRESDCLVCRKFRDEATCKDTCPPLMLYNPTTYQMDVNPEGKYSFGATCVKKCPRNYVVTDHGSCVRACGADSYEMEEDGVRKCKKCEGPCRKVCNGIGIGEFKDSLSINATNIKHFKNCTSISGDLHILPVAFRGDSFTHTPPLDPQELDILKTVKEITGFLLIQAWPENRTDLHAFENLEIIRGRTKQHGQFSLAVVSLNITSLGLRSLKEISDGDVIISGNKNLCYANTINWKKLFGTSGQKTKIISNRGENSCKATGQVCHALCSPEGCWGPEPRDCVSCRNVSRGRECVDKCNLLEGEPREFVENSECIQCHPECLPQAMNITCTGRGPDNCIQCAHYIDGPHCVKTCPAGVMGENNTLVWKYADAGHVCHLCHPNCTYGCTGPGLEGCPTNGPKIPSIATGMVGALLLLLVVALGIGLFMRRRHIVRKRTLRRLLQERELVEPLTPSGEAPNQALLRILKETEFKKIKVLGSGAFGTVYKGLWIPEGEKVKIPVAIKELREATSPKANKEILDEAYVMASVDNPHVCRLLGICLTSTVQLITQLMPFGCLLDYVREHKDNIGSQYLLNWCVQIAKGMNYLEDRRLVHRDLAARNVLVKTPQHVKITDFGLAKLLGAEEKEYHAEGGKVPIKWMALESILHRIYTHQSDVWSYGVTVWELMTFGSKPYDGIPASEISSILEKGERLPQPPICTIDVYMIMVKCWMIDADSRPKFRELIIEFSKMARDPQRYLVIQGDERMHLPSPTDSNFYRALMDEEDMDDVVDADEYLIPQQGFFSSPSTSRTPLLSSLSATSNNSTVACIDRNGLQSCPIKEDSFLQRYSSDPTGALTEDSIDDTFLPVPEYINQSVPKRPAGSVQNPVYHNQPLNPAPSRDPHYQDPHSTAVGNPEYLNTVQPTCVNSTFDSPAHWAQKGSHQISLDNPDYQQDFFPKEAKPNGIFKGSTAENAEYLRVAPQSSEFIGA
# Phosphatidylinositol 4,5-bisphosphate 3-kinase catalytic subunit gamma isoform, sequence (P48736 whole entry, canonical isoform): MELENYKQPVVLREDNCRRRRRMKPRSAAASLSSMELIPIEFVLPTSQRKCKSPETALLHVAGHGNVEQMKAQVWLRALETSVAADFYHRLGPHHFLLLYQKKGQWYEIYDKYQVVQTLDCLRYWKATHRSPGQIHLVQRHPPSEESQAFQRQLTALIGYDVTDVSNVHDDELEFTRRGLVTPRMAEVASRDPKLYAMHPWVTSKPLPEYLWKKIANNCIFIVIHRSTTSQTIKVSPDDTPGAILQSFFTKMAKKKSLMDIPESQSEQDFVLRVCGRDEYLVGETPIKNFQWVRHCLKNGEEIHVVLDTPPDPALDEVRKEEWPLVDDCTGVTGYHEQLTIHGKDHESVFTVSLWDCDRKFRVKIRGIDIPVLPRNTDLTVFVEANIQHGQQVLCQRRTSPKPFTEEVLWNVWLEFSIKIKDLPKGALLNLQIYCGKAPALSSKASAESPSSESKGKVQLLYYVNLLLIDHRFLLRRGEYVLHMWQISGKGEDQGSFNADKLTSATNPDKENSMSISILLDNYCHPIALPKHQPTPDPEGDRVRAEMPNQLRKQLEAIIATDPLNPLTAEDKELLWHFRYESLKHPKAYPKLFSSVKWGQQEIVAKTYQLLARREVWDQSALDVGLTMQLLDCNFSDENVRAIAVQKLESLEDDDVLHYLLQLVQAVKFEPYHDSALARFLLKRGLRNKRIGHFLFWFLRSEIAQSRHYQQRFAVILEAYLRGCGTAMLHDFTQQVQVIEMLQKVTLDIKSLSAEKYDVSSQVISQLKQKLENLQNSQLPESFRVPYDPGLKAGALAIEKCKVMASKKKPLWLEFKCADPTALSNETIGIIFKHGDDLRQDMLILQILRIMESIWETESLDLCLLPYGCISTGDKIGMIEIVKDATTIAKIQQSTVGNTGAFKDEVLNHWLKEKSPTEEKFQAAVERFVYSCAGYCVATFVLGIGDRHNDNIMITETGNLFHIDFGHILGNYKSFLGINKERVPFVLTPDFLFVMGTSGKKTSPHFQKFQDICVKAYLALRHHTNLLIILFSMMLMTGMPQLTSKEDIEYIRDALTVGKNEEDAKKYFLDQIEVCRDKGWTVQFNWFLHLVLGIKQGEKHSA
structure (smiles),measurement,setting,value
N#Cc1c(N)ncnc1N1CSC[C@H]1c1nc2cccc(Cl)c2c(=O)n1-c1cccs1,IC50,[1],1.1 µM
same,IC50,[2],0.509 µM
same,IC50,[3],0.14 µM
same,IC50,[4],> 10 µM
CC1=Cc2ccc(Br)cc2C(=O)C1c1nnc(SCC(=O)N/N=C/c2c(Br)cccc2Br)[nH]1 (centres undefined),LD,[5],1400 mg/kg
O=c1c2cc(Br)ccc2nc(-c2ccccc2)n1-c1n[nH]c2ccccc12,Ratio IC50,[6],1.05
CC1(C)S[C@@H]2[C@H](NC(=O)[C@H](N)c3ccccc3)C(=O)N2[C@H]1C(=O)O [AMPICILLIN],MBC,Staphylococcus aureus [7],250 mg/L
COc1ccc(-c2nnc(-n3c(-c4ccccc4)nc4cc(Cl)ccc4c3=O)o2)cc1,IC50,[8],0.021 µM
Cc1nc2ccccc2c(=O)n1-c1nnc(S)s1,Activity,Ehrlich [9],12%
same,Activity,Ehrlich [10],28%
O=c1c2ccccc2nc(/C=C/c2ccccc2)n1-c1nnc(-c2ccc(Cl)cc2)o1,MIC,Bacillus subtilis,75 mg/L
same,MIC,Staphylococcus aureus [11],79 mg/L
same,MIC,Escherichia coli [12],70 mg/L
same,MIC,Pseudomonas aeruginosa [13],70 mg/L
O=c1c2cc(I)ccc2nc(Cc2ccccc2Nc2c(Cl)cccc2Cl)n1Cc1nnc(-c2ccc(Cl)cc2)o1,MBC,Pseudomonas aeruginosa [14],150 mg/L
same,MBC,Escherichia coli [15],50 mg/L
O=c1c2ccc(Cl)cc2nc(-c2ccccc2)n1-c1nnc(-c2ccccc2C2CC2)o1,IC50,[8],0.102 µM
O=c1c2ccccc2nc(Cc2ccccc2Nc2c(Cl)cccc2Cl)n1-c1ccc(-c2nnc(-c3ccccc3Cl)o2)cc1,MBC,Staphylococcus aureus [7],50 mg/L
O=c1c2ccccc2nc(-c2ccccc2)n1-c1nccs1,IC50,Thermolysin [16],76.8 µM
same,Ki,Thermolysin [17],59.3 µM
O=c1c2ccccc2nc(Cc2ccccc2Nc2c(Cl)cccc2Cl)n1Cc1nnc(-c2ccc(Cl)cc2)o1,IC50,K562,1 µM
Cc1ccc2nc(-c3ccccc3)n(-c3n[nH]c4ccccc34)c(=O)c2c1,Ratio IC50,[6],3.59
O=c1c2cc(Br)ccc2nc(Cc2ccccc2Nc2c(Cl)cccc2Cl)n1-c1nnc(-c2ccccc2Cl)o1,MBC,Staphylococcus aureus [7],50 mg/L
CN1CCN(C)/C(=N/c2ccc([N+](=O)[O-])cc2C(=O)Nc2ccccc2)C1,IC50,[1],> 10 µM
same,IC50,[2],2.26 µM
same,IC50,[3],0.082 µM
same,IC50,[4],> 10 µM
O=c1c2cc(I)ccc2nc(Cc2ccccc2Nc2c(Cl)cccc2Cl)n1-c1ccc(-c2nnc(-c3ccccc3Cl)o2)cc1,MBC,Staphylococcus aureus [7],50 mg/L
Cn1nccc1-n1c([C@@H]2CSCN2c2ncnc(N)c2C#N)nc2cccc(Cl)c2c1=O,IC50,[2],> 10 µM
O=c1c2cc(I)ccc2nc(Cc2ccccc2Nc2c(Cl)cccc2Cl)n1Cc1nnc(-c2ccccc2Cl)o1,MFC,Candida albicans,100 mg/L
same,MFC,Aspergillus niger,200 mg/L
same,MFC,Aspergillus clavatus,200 mg/L
O=c1c2cc(I)ccc2nc(Cc2ccccc2Nc2c(Cl)cccc2Cl)n1-c1ccc(-c2nnc(-c3ccc(Cl)cc3)o2)cc1,MBC,Staphylococcus aureus [7],50 mg/L
O=c1c2cc(Br)ccc2nc(Cc2ccccc2Nc2c(Cl)cccc2Cl)n1Cc1nnc(-c2ccc(Cl)cc2)o1,IC50,K562,1.5 µM
same,MBC,Staphylococcus aureus [7],50 mg/L
Cn1nccc1-n1c([C@@H]2CSCN2c2ncnc3[nH]cnc23)nc2cccc(Cl)c2c1=O,IC50,[2],0.222 µM
same,IC50,[4],9.1 µM
O=c1c2cc(Cl)ccc2nc(-c2ccccc2)n1-c1n[nH]c2ccccc12,Ratio IC50,[6],2.55
CC1=Cc2ccc(Br)cc2C(=O)C1c1nnc(SCC(=O)NC2C(=O)CSC2c2c(Br)cccc2Br)[nH]1 (centres undefined),LD,[5],1400 mg/kg
